The results in this text go back to patent US12048693B2, “Substituted halo-quinoline derivatives, method of preparation and applications thereof” (Institut National de la Sante et de la Recherche Medicale …, priority 2018, dated 2024).

One data set deals with melanoma cell line A375. As to the kind of experiment: In vitro dose response study on A375 proliferation. Conditions: Homo sapiens, A-375, 96 h, graded concentration. The class given is cell-based. As to the method:
The melanoma cell line A375 was treated during 96 h with graded concentration of compounds 42 and 43. At the end of the culture period, the cell concentration was determined.

The test system of the next data set is A375. The data set is described as follows: Cancer cell viability, trypan blue exclusion assay. The class given is cell-based. As to conditions: Homo sapiens, A-375, normalized to DMSO-treated control. The procedure:
(§1) The tested cancer cells are the following: human melanoma cells (A375), lung carcinoma cells (A549), prostate cancer cells (PC3), colon adenocarcinoma (HT29), pancreas carcinoma (MiaPaca 2) and breast carcinoma (MCF-7).
Cells were counted using a Malassez chamber. The average and standard deviation were calculated from triplicate experiments. Antiproliferative effects were evaluated by trypan blue exclusion assay. […] Cells were washed with PBS and detached by trypsinization, collected and colored by trypan blue.
(§2) As a comparison, cell viability was also determined and calculated as follow: Viability (%)=100−[(dead cell number/total cells)*100].

Another data set relates to MiaPaca-2. The data set is described as follows: Cancer cell viability, trypan blue exclusion assay. The class given is cell-based. Conditions: Homo sapiens, MIA PaCa-2, normalized to DMSO-treated control. The procedure: (§3) Cancer Cell Proliferation Assay (A375, A549, PC3, HT-29, MiaPaca-2 and MCF-7)
as §1
(§4) Cells were counted using a Malassez chamber. The average and standard deviation were calculated from triplicate experiments. Antiproliferative effects were evaluated by trypan blue exclusion assay. Briefly, cells were seeded into 12-well plate and grown in media supplemented with indicated compound at 1 or 10 μM for 48 h or 96 h. Cells were washed with PBS and detached by trypsinization, collected and colored by trypan blue.
as §2

The test system of a further data set is MCF-7. As to the kind of experiment: Cancer cell viability, trypan blue exclusion assay. As to conditions: Homo sapiens, MCF7, normalized to DMSO-treated control. The class given is cell-based. As to the method:
as §3, §1, §4, §2

In another data set the test system is HT29. As to the kind of experiment: Cancer cell viability, trypan blue exclusion assay. It is filed as cell-based. As to conditions: Homo sapiens, HT-29, normalized to DMSO-treated control. The procedure:
as §3, §1, §4, §2

In a further data set the test system is A549. As to the kind of experiment: Cancer cell viability, trypan blue exclusion assay. The class given is cell-based. Conditions: Homo sapiens, normalized to DMSO-treated control. As to the method: as §3, §1, §4, §2
For data set [1], the system named is PC3. The data set is described as follows: Cancer cell viability, trypan blue exclusion assay. The class given is cell-based. Conditions: Homo sapiens, PC-3, normalized to DMSO-treated control. The procedure:
as §3, §1, §4, §2

A short description of data set [2]: Melanocyte viability assay (MHN). It is filed as cell-based. As to conditions: human, MHN melanocytes, 10 μM for 96 h, normalized to DMSO-treated control, read-out: Heathly Cell Viability MHN. The procedure: Melanocyte Viability Assay (MHN)
Cell viability effects were evaluated by trypan blue exclusion assay. Briefly, cells were seeded into 12-well plate and grown in media supplemented with indicated compound at 10 μM for 96 h. Cells were washed with PBS and detached by trypsinization, collected and colored by trypan blue. Dead and living cells were counted and cell viability was calculated as follow: Viability (%)=100−[(dead cell number/total cells)*100].

Data set [3] concerns PC3. The data set is described as follows: Cancer cell proliferation assay. It is filed as cell-based, human. Conditions: 10 μM, normalized to DMSO-treated control. The procedure:
as §3, §1, §4
Dead and living cells were counted and proliferation was calculated as follow: Proliferation (%)=[(treated cell number/untreated cells number)*100].

The structures appear in SMILES notation.

`COCCOc1ccc(Nc2ccnc3cc(Cl)ccc23)cc1` [Compound 42, 7-chloro-N-(4-(2-methoxyethoxy)phenyl)quinolin-4-amine]: in the data set on melanoma cell line A375, the IC50 came out at 420 nM. Further, the viability at 10 µM is 99.3% in the data set with A375; 100% in the data set on MiaPaca-2; 97.2% with MCF-7; 97.3% in the data set with HT29; 99.7% in the data set with A549; 98.9% in the data set on PC3 [1]. For the same molecule, the viability at 96 h, 10 μM in [2] stood at 99%.

In turn, `COc1ccc(Nc2ccnc3cc(Cl)ccc23)cc1O` [Compound 43, 7-chloro-N-(3-(hydroxy)-4-(methoxy)phenyl)quinolin-4-amine] had an IC50 with melanoma cell line A375 of 1830 nM. For the same molecule, in the data set with PC3 [3], the “Cancer Cell Proliferation” value was determined as 55.0%. Moreover, the viability at 10 µM with MiaPaca-2 amounted to 97.6%; in the data set on MCF-7 it was 99.6%; in the data set with HT29 it was 85.8%; with A549, 99.8%; with PC3 [1], 94.6%.
